In US11213499B1, “Use of 3,3′-diselenodipropionic acid (DSePA) as an anticancer agent” (Secretary, Department of Atomic Energy, priority 2020, dated 2022):

Test system: human K562 xenograft
Assay: Anti-tumor effect in human K562 xenograft model
Type: in vivo
Settings: for mortality: study period of 30 days
Experimental: These xenografts representative of NSCLC and CML respectively are considered to be highly aggressive and resistant to chemotherapy treatment. Therefore, any new chemotherapy agent against these cancers is very much sought. For the experiment, a total of 12 mice bearing A549 or K562 tumors of volume in the range of ˜50 mm^3 were divided into two groups (I & II), each group comprising of six mice. […] The group II was administered DSePA daily dissolved in sterile saline through oral route at a dosage of 1 mg/Kg body weight. The tumor volume and body weight of mice from each group were monitored daily for a total period of 30 days from the day of start. The animals were also checked for mortality if any throughout the study period. The experiment in A549 tumor was repeated three times (n=18 for each group) and the experiment in K562 tumor was repeated two times (n=12 for each group). […] This is the first study to show the anticancer activity of DSePA per se using xenograft model of human lung cancer (A549) and human leukemia (K562) cells in mice. Discovery of the application of the anticancer activity of DSePA is a novel invention in context of its probable usage in treatment for lung and leukemia cancer. More specifically the invention proposes a treatment regime and route of administering DSePA to inhibit the growth of human NSCLC (A549) and CML (K562).
For the optimization of the oral dosage of DSePA, a total of 24 mice bearing A549 or K562 xenograft of volume in the range of ˜50 mm^3 were divided into four groups (I-IV), each group comprising of six mice. […] The groups II, III and IV were administered DSePA dissolved in sterile saline through oral route at the dosage of 1, 2.5 and 5 mg/kg body weight respectively. The administration of DSePA was performed daily for 4 weeks. The tumor volume and body weight of mice from each group were monitored daily for a total period of 30 days from the day of start. The animals were also checked for mortality if any throughout the study period.
Animal maintenance—All animal studies were approved by the Institutional Animal Ethics Committee. Animals were housed under standard conditions (20±2° C., 65-70% humidity, 12 h/12 h day/night cycle, balanced laboratory diet and tap water ad libitum.
Xenograft tumor model-A549 and K562 tumor models were developed by Anticancer Drug Screening Facility of Advanced Centre for Treatment, Research and Education in Cancer (ACTREC), India. Briefly, Male/female NOD-SCID aged 6-7 weeks were housed in the laboratory animal facility of ACTREC. Donor mice carrying K562 or A549 xenografts were developed by injecting 2×10^6 cells in 100 μl of DMEM/RPMI, subcutaneously in their right flank. When tumors attained the size of approximately 2000 mm^3, the animals were sacrificed. Tumors were obtained and further cut into 2-3 mm fragments and implanted subcutaneously in the right flank of 6-7 weeks old recipient SCID mice. Tumors were allowed to grow to a size of approximately 50 mm^3 following which animals were divided into groups of six animals each for evaluation. A fresh DSePA solution was prepared by dissolution in sterile saline before each administration by intraperitoneal/oral route. The tumor efficacy of DSePA was determined by monitoring parameters like tumor volume and T/C. Tumors were assumed spherical and volume was calculated using following equations (1 & 2): […]
Where d1 (mm) and d2 (mm) are diameters measured in two perpendicular planes. T/C is defined as the ratio of the mean tumor volume of DSePA treated groups with the mean tumor volume of control group on the day of observation.

[1] = 1 mg/kg body weight daily oral, day 1
[2] = 1 mg/kg body weight daily oral, day 5
[3] = 1 mg/kg body weight daily oral, day 9
[4] = 1 mg/kg body weight daily oral, day 12
[5] = 1 mg/kg body weight daily oral, day 15
[6] = 1 mg/kg body weight daily oral, day 18
[7] = 1 mg/kg body weight daily oral, day 21
[8] = 1 mg/kg body weight daily oral, day 24
[9] = 1 mg/kg body weight daily oral, day 27
[10] = 1 mg/kg body weight daily oral, day 32
[11] = 2.5 mg/kg body weight daily oral, day 1
[12] = 2.5 mg/kg body weight daily oral, day 5
[13] = 2.5 mg/kg body weight daily oral, day 9
[14] = 2.5 mg/kg body weight daily oral, day 12
[15] = 2.5 mg/kg body weight daily oral, day 15
[16] = 2.5 mg/kg body weight daily oral, day 18
[17] = 2.5 mg/kg body weight daily oral, day 21
[18] = 2.5 mg/kg body weight daily oral, day 24
[19] = 2.5 mg/kg body weight daily oral, day 27
[20] = 2.5 mg/kg body weight daily oral, day 32
[21] = 5 mg/kg body weight daily oral, day 1
[22] = 5 mg/kg body weight daily oral, day 5
[23] = 5 mg/kg body weight daily oral, day 9
[24] = 5 mg/kg body weight daily oral, day 12
[25] = 5 mg/kg body weight daily oral, day 15
[26] = 5 mg/kg body weight daily oral, day 18
[27] = 5 mg/kg body weight daily oral, day 21
[28] = 5 mg/kg body weight daily oral, day 24
[29] = 5 mg/kg body weight daily oral, day 27
[30] = 5 mg/kg body weight daily oral, day 32

O=C(O)CC[Se][Se]CCC(=O)O [DSePA, 3,3′-diselenodipropionic acid]
tumor growth inhibition vs control (1 mg/Kg body weight daily oral, two independent experiments): significantly (P<0.05) inhibited the growth
overall reduction (relative tumor volume vs tumor control) (1 mg/Kg orally daily, end of study period (30 days), n=12, P=0.011): ~3.7 folds
mortality (1 mg/Kg orally daily, two independent studies): did not show any mortality
% S (Survival) [1]: 100%
RTV (Relative Tumor Volume) [1]: 1
T/C (T (test)/C (control)) [1]: 1
% S (Survival) [2]: 100%
RTV (Relative Tumor Volume) [2]: 1.13
T/C (T (test)/C (control)) [2]: 0.80
% S (Survival) [3]: 100%
RTV (Relative Tumor Volume) [3]: 1.13
T/C (T (test)/C (control)) [3]: 0.79
% S (Survival) [4]: 100%
RTV (Relative Tumor Volume) [4]: 1.22
T/C (T (test)/C (control)) [4]: 0.48
% S (Survival) [5]: 100%
RTV (Relative Tumor Volume) [5]: 1.42
T/C (T (test)/C (control)) [5]: 0.37
% S (Survival) [6]: 100%
RTV (Relative Tumor Volume) [6]: 2.28
T/C (T (test)/C (control)) [6]: 0.38
% S (Survival) [7]: 100%
RTV (Relative Tumor Volume) [7]: 1.90
T/C (T (test)/C (control)) [7]: 0.33
% S (Survival) [8]: 100%
RTV (Relative Tumor Volume) [8]: 2.22
T/C (T (test)/C (control)) [8]: 0.24
% S (Survival) [9]: 100%
RTV (Relative Tumor Volume) [9]: 3.24
T/C (T (test)/C (control)) [9]: 0.32
% S (Survival) [10]: 100%
RTV (Relative Tumor Volume) [10]: 4.38
T/C (T (test)/C (control)) [10]: 0.36
% S (Survival) [11]: 100%
RTV (Relative Tumor Volume) [11]: 1
T/C (T (test)/C (control)) [11]: 1
% S (Survival) [12]: 100%
RTV (Relative Tumor Volume) [12]: 1.09
T/C (T (test)/C (control)) [12]: 0.76
% S (Survival) [13]: 100%
RTV (Relative Tumor Volume) [13]: 1.01
T/C (T (test)/C (control)) [13]: 0.70
% S (Survival) [14]: 100%
RTV (Relative Tumor Volume) [14]: 1.42
T/C (T (test)/C (control)) [14]: 0.56
% S (Survival) [15]: 100%
RTV (Relative Tumor Volume) [15]: 1.66
T/C (T (test)/C (control)) [15]: 0.43
% S (Survival) [16]: 100%
RTV (Relative Tumor Volume) [16]: 1.79
T/C (T (test)/C (control)) [16]: 0.30
% S (Survival) [17]: 100%
RTV (Relative Tumor Volume) [17]: 1.54
T/C (T (test)/C (control)) [17]: 0.26
% S (Survival) [18]: 100%
RTV (Relative Tumor Volume) [18]: 1.23
T/C (T (test)/C (control)) [18]: 0.13
% S (Survival) [19]: 100%
RTV (Relative Tumor Volume) [19]: 1.74
T/C (T (test)/C (control)) [19]: 0.17
% S (Survival) [20]: 100%
RTV (Relative Tumor Volume) [20]: 2.21
T/C (T (test)/C (control)) [20]: 0.18
% S (Survival) [21]: 100%
RTV (Relative Tumor Volume) [21]: 1
T/C (T (test)/C (control)) [21]: 1
% S (Survival) [22]: 100%
RTV (Relative Tumor Volume) [22]: 1.04
T/C (T (test)/C (control)) [22]: 0.73
% S (Survival) [23]: 100%
RTV (Relative Tumor Volume) [23]: 1.05
T/C (T (test)/C (control)) [23]: 0.73
% S (Survival) [24]: 100%
RTV (Relative Tumor Volume) [24]: 1.32
T/C (T (test)/C (control)) [24]: 0.52
% S (Survival) [25]: 100%
RTV (Relative Tumor Volume) [25]: 1.11
T/C (T (test)/C (control)) [25]: 0.29
% S (Survival) [26]: 100%
RTV (Relative Tumor Volume) [26]: 1.29
T/C (T (test)/C (control)) [26]: 0.22
% S (Survival) [27]: 100%
RTV (Relative Tumor Volume) [27]: 1.22
T/C (T (test)/C (control)) [27]: 0.21
% S (Survival) [28]: 100%
RTV (Relative Tumor Volume) [28]: 1.25
T/C (T (test)/C (control)) [28]: 0.13
% S (Survival) [29]: 100%
RTV (Relative Tumor Volume) [29]: 1.73
T/C (T (test)/C (control)) [29]: 0.17
% S (Survival) [30]: 100%
RTV (Relative Tumor Volume) [30]: 2.45
T/C (T (test)/C (control)) [30]: 0.20
tumor growth inhibition vs control (dosage optimization, 1 mg/kg body weight daily oral for 4 weeks): significantly (P<0.05) inhibited the growth of K562 tumor from the day 15 onwards
tumor growth inhibition vs control (dosage optimization, 2.5 mg/kg body weight daily oral for 4 weeks): significantly (P<0.05) inhibited the growth of K562 tumor from the day 15 onwards
tumor growth inhibition vs control (dosage optimization, 5 mg/kg body weight daily oral for 4 weeks): significantly (P<0.05) inhibited the growth of K562 tumor from the day 15 onwards
mortality (dosage optimization, 1, 2.5 and 5 mg/kg daily oral): did not show any mortality
T/C achieved (leukemia model, 1 mg/kg body weight daily oral): ≤ 0.42
minimum dosage to achieve optimum efficacy (oral daily): 1 mg/kg body weight
